In patent US20070048215A1, “Chemical compound and assay” (priority 2003, published 2007):

Assays:
[1] = target: T1, membranes from hERG-transfected HEK cells (hERG channel) (Homo sapiens, UniProt Q12809); assay: Binding of the radioligand to membranes from hERG-transfected HEK cells (Kd, Bmax); settings: mean±SEM, n=3
T1 construct: expressed in transfected cells; host or cells: HEK (human embryonic kidney) cells, membrane preparation
Description: The batch of radiolabel used in these studies has a specific activity of 2941.5 GBq/mmol (79.5 Ci/mmol) and a concentration of 20 μM. The stock radiolabel is diluted 2000-fold to 10 nM and 20 μL added per well to a final assay volume of 200 μL to give a final radioligand concentration of 1 nM.

[2] = target: T2, hERG-transfected HEK membranes (hERG channel) (Homo sapiens, UniProt Q12809); settings: published data of Finlayson et al.; cited from earlier work
T2 sequence (Q12809 whole entry): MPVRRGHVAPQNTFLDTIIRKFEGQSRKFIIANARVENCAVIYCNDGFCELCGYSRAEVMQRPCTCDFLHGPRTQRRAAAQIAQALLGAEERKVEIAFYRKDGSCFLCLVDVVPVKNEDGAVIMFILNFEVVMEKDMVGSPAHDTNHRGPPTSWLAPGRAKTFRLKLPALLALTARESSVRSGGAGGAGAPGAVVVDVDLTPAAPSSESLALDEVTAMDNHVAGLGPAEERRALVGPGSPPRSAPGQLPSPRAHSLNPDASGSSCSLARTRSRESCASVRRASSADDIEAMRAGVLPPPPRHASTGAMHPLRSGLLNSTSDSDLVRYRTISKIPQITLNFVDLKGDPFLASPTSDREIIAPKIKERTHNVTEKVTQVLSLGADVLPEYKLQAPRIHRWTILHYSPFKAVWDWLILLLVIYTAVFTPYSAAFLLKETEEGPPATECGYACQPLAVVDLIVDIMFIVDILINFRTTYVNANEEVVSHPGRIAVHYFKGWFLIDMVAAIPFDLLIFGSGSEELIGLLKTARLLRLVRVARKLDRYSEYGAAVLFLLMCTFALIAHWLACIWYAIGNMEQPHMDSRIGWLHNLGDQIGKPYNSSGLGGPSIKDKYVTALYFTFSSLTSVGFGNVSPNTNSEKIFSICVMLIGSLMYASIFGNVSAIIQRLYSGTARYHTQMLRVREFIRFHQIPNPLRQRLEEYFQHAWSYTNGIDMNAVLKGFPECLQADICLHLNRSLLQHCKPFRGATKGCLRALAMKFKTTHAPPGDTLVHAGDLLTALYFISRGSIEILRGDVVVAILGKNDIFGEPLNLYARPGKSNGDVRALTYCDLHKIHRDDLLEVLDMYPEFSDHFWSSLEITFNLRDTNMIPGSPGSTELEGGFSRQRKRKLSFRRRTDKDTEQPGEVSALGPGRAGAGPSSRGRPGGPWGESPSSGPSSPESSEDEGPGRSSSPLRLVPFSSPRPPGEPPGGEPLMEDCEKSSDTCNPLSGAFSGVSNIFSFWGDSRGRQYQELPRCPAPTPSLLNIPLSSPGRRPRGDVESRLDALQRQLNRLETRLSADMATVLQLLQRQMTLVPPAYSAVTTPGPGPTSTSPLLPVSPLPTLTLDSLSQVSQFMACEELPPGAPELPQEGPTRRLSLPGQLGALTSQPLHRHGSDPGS

[3] = target: T2, hERG-transfected HEK membranes (hERG channel)
Description: Protocol for HERG Binding Assay
(§1) 96-well polypropylene plates (Costar C3600)
GF/B Plate Coating Solution
0.3% (v/v) Polyethylenimine
(§2) GF/B filter plates are pre-soaked in coating solution for a minimum of 20 minutes before harvesting.
(§3) Membranes for use in the assay are prepared as follows:
(§4) The final pellet is prepared in serum-free medium and the packed cell volume (pcv) measured.
(§5) The cells are allowed to swell for a couple of minutes on ice then lysed using a Polytron tissue homogeniser set to 22,000 rpm. The cell suspension is held on ice and the Polytron is allowed to build up to speed, then turned off and allowed to cool for 30 seconds before repeating. Normally 3 bursts should be sufficient to completely lyse the cells. A sample is checked microscopically to ensure complete lysis and the process repeated if necessary.
(§6) The lysed membrane solution is carefully overlaid over the 41% cushion. Any debris that may be stuck to the sides is washed out of the Polytron tube with buffer. The ultra centrifuge tube is topped up with cold buffer to completely fill the tube (this prevents the tube from collapsing during centrifugation). Centrifugation is carried out at 28,000 rpm for 1 hour @ 4° C. using a SW-28 swing-out rotor with a brake to 800 rpm.
(§7) Membranes are seen as a white band at sucrose/buffer interphase. The top layer of the buffer is discarded and then all the membrane band is harvested with as little sucrose as possible and added to a fresh centrifuge tube. This is diluted and mixed well with at least 3 volumes of ice cold buffer containing protease inhibitor. Centrifugation is carried out at 23,000 rpm at 4° C. for 20 minutes with a break to zero.
(§8) The supernatant is discarded and the pellet resuspended in the assay buffer+protease inhibitors on ice at 1×10^8 cell equivalents/ml. This preparation is then aliquotted and frozen to −80° C. or lower. […]
(§9) 20 μL of 10 nM 3,7-Bis[2-(4-nitro[3,5-^3H]phenyl)ethyl]-3,7-diazabicyclo[3.3.1]nonane is added to a dry filter plate to determine the total radioactivity added to assay wells.

[4] = tested on: cardiac rapidly activating delayed rectifier K^+ current; settings: source of data: Chadwick 1993; G.Pig; cited from earlier work
[5] = target: T2, hERG-transfected HEK membranes (hERG channel); assay: biochemical
Description: Protocol for HERG Binding Assay
as §1
GF/B Plate Coating Solution
0.3% (v/v) Polyethylenimine
as §2, §3, §4, §5, §6, §7, §8, §9

T1 sequence (Q12809 whole entry): as above

Question: Which Kd [1] does the source give for `O=[N+]([O-])c1ccc(CCN2CC3CC(C2)CN(CCc2ccc([N+](=O)[O-])cc2)C3)cc1` [3,7-Bis[2-(4-nitro[3,5-^3H]phenyl)ethyl]-3,7-diazabicyclo[3.3.1]nonane] here?
Answer: The Kd was 0.91 ± 0.01 nM.

Question: For `CC(C)NC[C@@H](O)c1ccc(NS(C)(=O)=O)cc1` [d-Sotalol], which “pIC50, [^3H]-Dofetlide competition binding” value [2] is on record?
Answer: The value was 3.9.

Question: What about the “pIC50, 3,7-Bis[2-(4-nitro[3,5-^3H]phenyl)ethyl]-3,7-diazabicyclo[3.3.1]nonane competition binding” value [3] of the same compound?
Answer: Its value is 4.6.

Question: And the “Electrophysiology pIC50” value [4]?
Answer: The value was 4.1.

Question: For `O=[N+]([O-])c1ccc(CCN2CC3CC(C2)CN(CCc2ccc([N+](=O)[O-])cc2)C3)cc1` [3,7-Bis[2-(4-nitrophenyl)ethyl]-3,7-diazabicyclo[3.3.1]nonane], which IC50 [5] is on record?
Answer: Its IC50 is 3.16 nM.

Question: Which Bmax [1] does the source give for `[3H]c1cc(CCN2CC3CC(C2)CN(CCc2cc([3H])c([N+](=O)[O-])c([3H])c2)C3)cc([3H])c1[N+](=O)[O-]` [3,7-Bis[2-(4-nitro[3,5-^3H]phenyl)ethyl]-3,7-diazabicyclo[3.3.1]nonane] here?
Answer: Its Bmax is 23.1±0.4 pmol/mg protein.
